Columns and labels:
[1] = tested on: hamsters with cerebellar ataxia; test: Rotarod test in hamsters with cerebellar ataxia; type: in vivo, hamster
Description: Since NK-4 was confirmed to have a neurodegenerative inhibitory action in Experiment 1, hamsters with cerebellar ataxia (cerebellar ataxia is called “cerebellar A” and hamsters with cerebellar ataxia are called “hamsters with cerebellar A”, hereinafter) as a suitable model for human neurodegenerative diseases (e.g., spinal cerebellar degeneration) were subjected to examine the influence of NK-4 administration on their behaviors and brain tissues. Twenty-five hamsters with natural mutation (Nna1 inhibition), which are known to lose Purkinje's cells after three-weeks of age and then induce a spontaneous onset of kinetic motor ataxia after seven-weeks of age (see Akita K. et al., “J. Neurogenetics”, Vol. 21, pp. 19-29, 2007), had been fed at Hayashibara Biochemical Laboratories., Inc., Okayama, Japan, were randomly allocated to the test groups 1 to 5, five heads in each group, as shown in Table 2. Prior to the onset of cerebellar A (at three-weeks of age), PBS was started to administer to the hamsters in the test group 1 at a dose of 10 ml/kg/day. Prior to the onset of cerebellar A (at three-weeks of age), NK-4 was started to be administered to the hamsters in the test groups 2 to 4 at a daily dose of 20 μg/kg, 100 μg/kg or 500 μg/kg. “IGF-1, human, a product name of insulin-like growth factor, commercialized by Assaypro LLC, MO, USA. These administered ingredients were intraperitoneally administered daily to hamsters once a day up to 10-weeks of age. The degree of symptom of cerebellar A and the improvement effect on the symptom by NK-4 were evaluated with an index of improvement in motor coordination of hamsters by conducting once a week the later described rotarod test and the slant tolerance test. At the age of 10-weeks, the hamsters were subjected to counting the falling down frequency and extracted their brains, which were then histologically evaluated. In parallel, the concentration of glutamic acid in the bloods and cerebrospinal fluids (CSF) of the hamsters was assayed. As a test group 6, five normal hamsters, with the same age as the hamsters with cerebellar A used in the test groups 1 to 5, were provided and tested similarly as the hamsters with cerebellar A in such a manner of intraperitoneally administering PBS to them at a dose of 10 ml/kg/day once a day up to 10-weeks of age.
As an index for coordinated movement, it was used a duration time of hamster's movement to staying on a rotarod by locomotion in synchronization with the turn of the rotarod; placing a hamster on an apparatus with a rotarod (having a diameter of 60 mm, prepared by Hayashibara Biochemical Laboratories, Inc., Okayama, Japan), turning at a constant rate of six rpm, and measuring the time until the hamster falls down from the rotarod (see Fernandez et al., “Proc. Natl. Acad. Sci. USA”, Vol. 95, pp. 1253-1258, 1998). The test was repeated six times for each hamster, where five-times of tests starting from the initiation of the test were made as a preliminary examination, and the time until each hamster fell down from the rotarod (called “falling time”, hereinafter) was measured, followed by averaging the falling times for each group consisting of five heads. The falling time was measured until 180 seconds. Based on the results, the relationship between the age and the falling time for each hamster with cerebellar A (test group 1) administered with PBS was graphed. […]
Similarly as in Experiment 2, 130 hamsters with cerebellar ataxia, born within the same week and 3-weeks of age, were randomly divided into 13 groups, consisting of 10 hamsters, respectively. […]

[2] = tested on: PC12-HS cells; test: Evaluation B: neurite-outgrowth action in presence of NGF; type: cell-based, rat
[3] = tested on: ICR mice administered with amyloid β fragment; test: Novel object recognition test, mouse administered with amyloid β fragment, agents of Example 1; type: in vivo; set-up: key: (novel − memorized seeking time)/(novel + memorized seeking time); conditions: agent of Example 1, 0.3 ml/head intraperitoneally once a day up to the 8th day
Procedure: One hundred and thirty ICR mice (commercialized by Charles Liver Laboratories Japan Inc., Kanagawa, Japan) were randomly divided into 13 groups, consisting of 10 mice in each group. Amyloid β fragment, represented by an amino acid sequence of SEQ ID NO: 1, used in Experiment 3 was aged at 37° C. for four days, and administered to the lateral ventricle of each mouse in an amount of 9 nmol/6 μl/mouse (the administration method is referred to “Brain Research”, Vol. 706, pp. 181-193 (1996)). […] The mice (10 heads) in the remaining one group were intraperitoneally administered with a sterilized 10% maltose solution (pyrogen-free) once a day up to the 8th day in an amount of 0.3 ml/mouse (control). On the 8th day after the administration, novel object recognition test (see, Japanese Patent Kokai No. 2008-193941) was performed and the average discrimination index (the ratio of prolonged seeking time for novel object to the total seeking time) as a cognitive function index were shown in Table 26. On the 9th day after the administration, the brain of the mice was anatomically isolated, prepared into tissue samples in conventional manner. Depositions of aggregation of amyloid fragment were observed by staining with Congo red or thioflavin T, and degeneration or defect of hippocampal pyramidal cells concerned with cognitive function. The degeneration or the defect of hippocampal pyramidal cells was evaluated by 4-point grade score, by regarding the condition of the control without administration of amyloid β fragment as “none (O)”, “slight (1)”, “moderate (2)”, and “sever (3)”, and the average scores of 10 mice are shown in Table 20.
An experiment apparatus (a glass box of 30 cm in depth, 45 cm in width, and 30 cm in height) and two kinds of objects to be memorized by mice were provided. On the day before the test, the mice were allowed to seek freely in the experiment apparatus with no seeking object for 10 minutes for acclimation. On the test day, the following test was performed twice at an interval of 60 minutes. In the first trial, the same two objects were placed in the apparatus at its both ends, and the mouse was allowed to seek freely for 10 minutes. On the second trial, one of the objects used in the first test was replaced with a different kind of object, and then the mouse was allowed to seek freely for five minutes. In each experiment, when the mouse brought its muffle close to the object within 1-cm apart from the object, or made its muffle or whiskers to contact with the object, the mouse was judged to have a seeking behavior, and the seeking time thereof was measured. The object discrimination index [={(seeking time for novel object)−(seeking time for memorized object)}/{(seeking time of novel object)+(seeking time of memorized object)}] was calculated. The object discrimination index means the ratio of an increased seeking time for novel object to the total seeking time, and the ratio becomes larger when the memory of the once sought object was more strongly held, and it becomes smaller when the memory was more weakly held.

[4] = compound concentration 80 ng/ml
[5] = compound concentration 400 ng/ml
[6] = compound concentration 2000 ng/ml
[7] = compound concentration 10000 ng/ml

SMILES: CCN1C=CC(=CC=C(C=Cc2cc[n+](CC)c3ccccc23)c2cc[n+](CC)c3ccccc23)c2ccccc21.[I-].[I-] [NK-4]
- Delayed days until the onset of cerebellar ataxia in hamster ([1]; 20 μg/kg body weight, 6-Weeks): 11 days
- Delayed days until the onset of cerebellar ataxia in hamster ([1]; 20 μg/kg body weight, 7-Weeks): 17 days
- Delayed days until the onset of cerebellar ataxia in hamster ([1]; 20 μg/kg body weight, 8-Weeks): 17 days
- Delayed days until the onset of cerebellar ataxia in hamster ([1]; 20 μg/kg body weight, 9-Weeks): 27 days
- Delayed days until the onset of cerebellar ataxia in hamster ([1]; 20 μg/kg body weight, 10-Weeks): 32 days
- Delayed days until the onset of cerebellar ataxia in hamster ([1]; 100 μg/kg body weight, 5-Weeks): 7 days
- Delayed days until the onset of cerebellar ataxia in hamster ([1]; 100 μg/kg body weight, 6-Weeks): 14 days
- Delayed days until the onset of cerebellar ataxia in hamster ([1]; 100 μg/kg body weight, 7-Weeks): 21 days
- Delayed days until the onset of cerebellar ataxia in hamster ([1]; 100 μg/kg body weight, 8-Weeks): 21 days
- Delayed days until the onset of cerebellar ataxia in hamster ([1]; 100 μg/kg body weight, 9-Weeks): 29 days
- Delayed days until the onset of cerebellar ataxia in hamster ([1]; 100 μg/kg body weight, 10-Weeks): 36 days
- Delayed days until the onset of cerebellar ataxia in hamster ([1]; 500 μg/kg body weight, 5-Weeks): 6 days
- Delayed days until the onset of cerebellar ataxia in hamster ([1]; 500 μg/kg body weight, 6-Weeks): 14 days
- Delayed days until the onset of cerebellar ataxia in hamster ([1]; 500 μg/kg body weight, 7-Weeks): 21 days
- Delayed days until the onset of cerebellar ataxia in hamster ([1]; 500 μg/kg body weight, 8-Weeks): 21 days
- Delayed days until the onset of cerebellar ataxia in hamster ([1]; 500 μg/kg body weight, 9-Weeks): 28 days
- Delayed days until the onset of cerebellar ataxia in hamster ([1]; 500 μg/kg body weight, 10-Weeks): 35 days
- time (sec) endured until falling from rotarod apparatus ([1]; cerebellar ataxia hamsters, 20 μg/kg body weight i.p. once a day from 3-weeks of age, 4-Weeks): 152 ± 4 s
- time (sec) endured until falling from rotarod apparatus ([1]; cerebellar ataxia hamsters, 20 μg/kg body weight i.p. once a day, 5-Weeks): 53 ± 5 s
- time (sec) endured until falling from rotarod apparatus ([1]; cerebellar ataxia hamsters, 20 μg/kg body weight i.p. once a day, 6-Weeks): 89 ± 9 s
- time (sec) endured until falling from rotarod apparatus ([1]; cerebellar ataxia hamsters, 20 μg/kg body weight i.p. once a day, 7-Weeks): 74 ± 10 s
- time (sec) endured until falling from rotarod apparatus ([1]; cerebellar ataxia hamsters, 20 μg/kg body weight i.p. once a day, 8-Weeks): 36 ± 2 s
- time (sec) endured until falling from rotarod apparatus ([1]; cerebellar ataxia hamsters, 20 μg/kg body weight i.p. once a day, 9-Weeks): 48 ± 3 s
- time (sec) endured until falling from rotarod apparatus ([1]; cerebellar ataxia hamsters, 20 μg/kg body weight i.p. once a day, 10-Weeks): 40 ± 4 s
- time (sec) endured until falling from rotarod apparatus ([1]; cerebellar ataxia hamsters, 100 μg/kg body weight i.p. once a day, 4-Weeks): 136 ± 5 s
- time (sec) endured until falling from rotarod apparatus ([1]; cerebellar ataxia hamsters, 100 μg/kg body weight i.p. once a day, 5-Weeks): 145 ± 8 s
- time (sec) endured until falling from rotarod apparatus ([1]; cerebellar ataxia hamsters, 100 μg/kg body weight i.p. once a day, 6-Weeks): 139 ± 10 s
- time (sec) endured until falling from rotarod apparatus ([1]; cerebellar ataxia hamsters, 100 μg/kg body weight i.p. once a day, 7-Weeks): 122 ± 7 s
- time (sec) endured until falling from rotarod apparatus ([1]; cerebellar ataxia hamsters, 100 μg/kg body weight i.p. once a day, 8-Weeks): 79 ± 12 s
- time (sec) endured until falling from rotarod apparatus ([1]; cerebellar ataxia hamsters, 100 μg/kg body weight i.p. once a day, 9-Weeks): 66 ± 6 s
- time (sec) endured until falling from rotarod apparatus ([1]; cerebellar ataxia hamsters, 100 μg/kg body weight i.p. once a day, 10-Weeks): 66 ± 6 s
- time (sec) endured until falling from rotarod apparatus ([1]; cerebellar ataxia hamsters, 500 μg/kg body weight i.p. once a day, 4-Weeks): 156 ± 5 s
- time (sec) endured until falling from rotarod apparatus ([1]; cerebellar ataxia hamsters, 500 μg/kg body weight i.p. once a day, 5-Weeks): 95 ± 8 s
- time (sec) endured until falling from rotarod apparatus ([1]; cerebellar ataxia hamsters, 500 μg/kg body weight i.p. once a day, 6-Weeks): 119 ± 4 s
- time (sec) endured until falling from rotarod apparatus ([1]; cerebellar ataxia hamsters, 500 μg/kg body weight i.p. once a day, 7-Weeks): 145 ± 7 s
- time (sec) endured until falling from rotarod apparatus ([1]; cerebellar ataxia hamsters, 500 μg/kg body weight i.p. once a day, 8-Weeks): 85 ± 8 s
- time (sec) endured until falling from rotarod apparatus ([1]; cerebellar ataxia hamsters, 500 μg/kg body weight i.p. once a day, 9-Weeks): 60 ± 7 s
- time (sec) endured until falling from rotarod apparatus ([1]; cerebellar ataxia hamsters, 500 μg/kg body weight i.p. once a day, 10-Weeks): 52 ± 5 s
- improving effect on motor coordination (in words) ([1]; cerebellar ataxia hamsters, agents of Example 1 compared among pentamethine cyanine dye compounds): particularly high improving effect on motor coordination
- Delayed days until the onset of cerebellar ataxia in hamster ([1]; from rotarod falling time vs test group 1, 20 μg/kg body weight, 5-Weeks): 0 days
- Time of falling from rotarod ([1]; hamster with cerebellar ataxia, agent of Example 1, 0.5 ml/hamster intraperitoneally once a day for 56 days): 88.4 ± 3.2 s
- Evaluation B: Neurite-outgrowth action ([2]; 50 μl of 400 ng/ml test sample solution per well + NGF final 5 ng/ml, 3 days): ∘ (The test sample with a neurite outgrowth rate of 30% or higher was judged to be equivalent or more (∘) compared with NK-4)
- Action on neurite outgrowth (%) [2, 4]: 25 ± 9%
- Action on neurite outgrowth (%) [2, 5]: 35 ± 9%
- Action on neurite outgrowth (%) [2, 6]: 52 ± 4%
- Action on neurite outgrowth (%) [2, 7]: 14 ± 6%
- Rate of cells exhibiting neurite outgrowth (%) ([2]; final concentration of compound 200 ng/ml): 22 ± 8%
- Rate of cells exhibiting neurite outgrowth (%) ([2]; final concentration of compound 400 ng/ml): 31 ± 14%
- Rate of cells exhibiting neurite outgrowth (%) ([2]; final concentration of compound 800 ng/ml): 51 ± 3%
- Rate of cells exhibiting neurite outgrowth (%) ([2]; final concentration of compound 1600 ng/ml): 49 ± 8%
- Object discrimination index [3]: 0.1

SMILES: CCCN1C=CC(=CC=C(C=Cc2cc[n+](CCC)c3ccccc23)c2cc[n+](CCC)c3ccccc23)c2ccccc21.[I-].[I-] [NK-234]
- Action on neurite outgrowth (%) [2, 4]: 24 ± 7%
- Action on neurite outgrowth (%) [2, 5]: 57 ± 7%
- Action on neurite outgrowth (%) [2, 6]: 61 ± 3%
- Action on neurite outgrowth (%) [2, 7]: 66 ± 20%

From patent US20120035187A1 (priority 2009, published 2012)
